For series [1], the system named is panel of experts in the sensory evaluation of foods and beverages. As to the kind of experiment: Sensory evaluation of sweetness onset and sweetness linger by expert panel. The format is in vivo, human. More on the design: key to Sweetness Linger: 0: no sweetness linger; 1: very slight sweetness linger; 2: slight sweetness linger; 3: moderate sweetness linger; 4: moderately high sweetness linger; 5: high sweetness linger; key to Sweetness Onset: 1: quick onset; 2: moderate onset; 3: slow onset. The note with it: for Sweetness Linger: rating scale 0-5, sweetness 2-3 min after water rinse, for ranges the lowest rating of all levels is reported; for Sweetness Onset: rating scale 1-3, ca. 10 mL sample tasted and expectorated, sucrose and neotame controls for calibration. The procedure:
An exemplary method of sensory evaluation is provided in the following protocol, similar to that described hereinabove. In this test protocol, none of the samples were swallowed. All samples were expectorated and the mouth was rinsed with water after the tasting. In step 1, the 10% sucrose control sample was tasted by distributing ca. 10 mL of sample quickly throughout the oral cavity, wherein the maximal “Sweetness Intensity” was measured. This intensity is defined as a 10 on a 0-15 scale where 0 is defined as no perceptible sweetness and 15, the sweetness of 15% sucrose. The “Overall Quality” of the taste was also measured in the sucrose control and was defined as a 6 on a 1-9 scale. Immediately upon sensing maximal sweetness, the sample was expectorated, the mouth was rinsed with water and the rate of sweetness decay (“Sweetness Linger”) and “Sweetness Onset” were measured, where attention was focused on the sweetness 2-3 min after the water rinse. The sweetness linger was rated by a panel of experts in the sensory evaluation of foods and beverages using the following scale: 0=no sweetness linger, 1=very slight sweetness linger, 2=slight sweetness linger, 3=moderate sweetness linger, 4=moderately high sweetness linger, 5=high sweetness linger. The sweetness onset was rated by a panel of experts using the following scale: 1=quick onset, 2=moderate onset, 3 slow onset. After sample tasting was complete, a salty oyster cracker was chewed followed by a water rinse, and at least 5 minutes followed before tasting the next sample.
The “Sweetness Linger” rating for sucrose observed by this protocol was defined as 0 and the “Sweetness Onset” was defined as 1. The Sweetness Onset and Sweetness Linger of a neotame control sample were defined as 3 and 5, respectively.
Following calibration with the sucrose and neotame control samples, the experimental samples were tasted by the same protocol, always allowing sufficient time between samples to ensure re-equilibration of the sensory system. Re-tasting of control samples during the course of the experiment was allowed and encouraged.
The comparison taste test was performed between two controls and addition of sweet taste improving additive on the onset and/or sweetness linger.
In Examples A1-A7, where there are ranges provided, the beverage samples were made with 5-7 levels from the top to the bottom of the range, using a 1:1 dilution of the corresponding sweet taste improving compositions. The sweetness linger rating reported was the most sugar-like in sweetness linger (the lowest numerical value) attained of all the samples (i.e., the shortest sweetness linger).

The nature of another series: Osmolarity of solution. The format is physicochemical. To be noted: sucrose at 10%. From the text: Average concentrations of inorganic ions present in saliva, which are responsible for nearly all of the osmolarity of saliva, are as illustrated in Table 1 below. From the data shown, it is clear that saliva typically has an osmolarity of 70 mOsM. Sucrose at 10%, however, is 292 mOsM, more than 4-fold higher, and therefore will cause significant shrinkage of taste bud cell volume and signaling to the central nervous system (CNS). Osmolarity refers to the measure of osmoles of solute per liter of solution, wherein osmole is equal to the number of moles of osmotically active particles in an ideal solution (e.g., a mole of glucose is one osmole), whereas a mole of sodium chloride is two osmoles (one mole of sodium and one mole of chloride). Thus, in order to improve in the quality of taste of synthetic sweeteners, the osmotically active compounds or the compounds which impart osmolarity must not introduce significant off taste to the formulation.

On to `COC(=O)[C@H](Cc1ccccc1)NC(=O)[C@H](CC(=O)O)NCCC(C)(C)C` [neotame], for which, in series [1], the “Sweetness Linger” value is recorded as 5 and the “Sweetness Onset” value was determined as 3.
In “Osmolarity of solution”, `OC[C@H]1O[C@@](CO)(O[C@H]2O[C@H](CO)[C@@H](O)[C@H](O)[C@H]2O)[C@@H](O)[C@@H]1O` [sucrose] yielded an osmolarity of 292 mOsM. Besides, in series [1], the “Sweetness Linger” value is given as 0 and the “Sweetness Onset” value stood at 1. In series [1] (listed as sugar), the “Sweetness Linger” value is reported as 1.

The values above are taken from patent US20070275147A1, “SYNTHETIC SWEETENER COMPOSITIONS WITH IMPROVED TEMPORAL PROFILE AND/OR FLAVOR PROFILE, METHODS FOR THEIR FORMULATION, AND USES” (THE COCA-COLA COMPANY, priority 2005, published 2007).
